Laboratory results taken from US20230338398A1, “USE OF DELTA-8-THC TO TREAT INFLAMMATORY AND AUTOIMMUNE DISEASES” (UNIVERSITY OF SOUTH CAROLINA, priority 2022, published 2023).
Entries after “also recorded” stand apart in the source; their conditions may differ.

Tests used:
[1] = tested on: brain-infiltrating CD4+ T cells; experiment: qRT-PCR of brain-infiltrating CD4+ T cells from EAE mice; type: in vivo, C57BL/6 mice
Method: (§1) EAE is a model for human Multiple Sclerosis. EAE was induced in 6-8 weeks old Female C57BL/6 mice through subcutaneous immunization with 100 μl of 150 μg MOG35-55 peptide (PolyPeptide Laboratories San Diego, CA, USA) along with heat killed Mycobacterium Tuberculosis 8 mg/ml (strain H37Ra) (BD, Franklin Lakes, NJ, USA), emulsified in PBS and complete Freund's adjuvant (CFA) (Fisher, Hampton, NH, USA). Mice also received two subsequent doses of 200 and 400 ng of pertussis toxin intraperitoneally on day 0 and 2, respectively (List Biological Laboratories, Campbell, CA, USA). Beginning on day 10, mice received a 100 μL intraperitoneal injection containing either a vehicle (sterile corn oil (CO) with 2% DMSO v/v) or a treatment suspension (10 mg/kg delta-8-THC in sterile CO with 2% DMSO v/v) every day till the end of the experiment. The control mice received the appropriate vehicle. On the appearance of the clinical symptoms, the animals were provided with food and water (Boost and Hydrogel) in the cage bedding to ensure their access to essential nutrients. During the experiment, animals were weighed for weight change and scored for disease progression on a daily basis. The mean body weight and clinical scores were calculated daily for each group. Clinical scores were recorded as follows: 0, healthy; 1, tail atony; 2, partial paralysis of hind limbs; 3, complete paralysis of hind limbs in combination with partial front limb paralysis; 4, tetraplegia; 5, moribund.
(§2) Mononuclear cells isolated from brain were labeled with Phycoerythrin-conjugated (PE-Conjugated) anti-CD4 antibody purchased from Biolegends. […]
(§3) To analyze gene expression, total RNA was purified from brain infiltrating CD4^+ cells using miRNeasy micro kit according to the manufacturer's instructions. RNA purity and concentration were measured by using Nanodrop spectrophotometer from Thermoscientific. […] The results obtained from qRT-PCR were calculated using delta delta Ct (ΔΔCt) method.

CB1 receptors = CB1 receptors (Homo sapiens, UniProt P21554); details: CB1 receptors located in the CNS; cited from earlier work
[2] = tested on: immune cells from brain and spleens; experiment: Flow cytometry of immune cells from brain and spleens of EAE mice; type: in vivo, C57BL/6 mice
Method: as §1
BD FACSCelesta flow cytometer was used to quantify the phenotypes of immune cells from brain and spleens. Cells were stained with fluorescently labeled monoclonal antibodies purchased from Biolegend (San Diego, CA). The data obtained from flow cytometer was analyzed on FlowJo software.

[3] = tested on: brain-infiltrating CD4+ T cells; experiment: miRNA microarray of CD4+ T cells isolated from the brain of EAE mice; type: in vivo, C57BL/6 mice
Method: as §1, §2, §3

[4] = tested on: Experimental Autoimmune Encephalomyelitis (EAE); experiment: Experimental Autoimmune Encephalomyelitis (EAE) model: clinical score and body weight; type: in vivo; details: EAE C57BL/6 mice, 10 mg/kg intraperitoneally every day from day 10, vs vehicle
Method: 6-8 weeks old Female C57BL/6 mice were purchased from Jackson Laboratory (Bar Harbor, ME). Animals colonies were maintained in accordance with Federal regulations and guidelines set by the animal facility of the University of South Carolina Institutional Animal Care and Use Committee (IACUC). Mice were housed in a single room under controlled temperature (22° C.), identical SPF, 50% relative humidity, and photoperiods (12:12 hours light/dark cycle). Animals were allowed unlimited access (ad libitum feeding) to autoclaved drinking water and a standard irradiated soy-free mouse chow. The health of the animals was monitored daily by the veterinarian in the animal facility.
as §1, with “Beginning on day 10, mice received a 100 μL intraperitoneal injection containing either a vehicle (sterile corn oil (CO) with 2% DMSO v/v) or a treatment suspension (10 mg/kg delta-8-THC in sterile CO with 2% DMSO v/v) every day till the end of the experiment. The control mice received the appropriate vehicle. On the appearance of the clinical symptoms, the animals were provided with food and water (Boost and Hydrogel) in the cage bedding to ensure their access to essential nutrients.” left out
The data were expressed as mean±SEM calculated using GraphPad Prism 9 (GraphPad Inc, La Jolla, CA) and the data sets for all experiments represent three to four experimental replicates per group. […]

[5] = tested on: brain infiltrating mononuclear cells; experiment: miRNA sequencing (miRNASeq) of brain infiltrating mononuclear cells of EAE mice
[6] = CD4+ T cells isolated from the brain of EAE mice, miRNA microarray

CB1 receptors, sequence (P21554 whole entry): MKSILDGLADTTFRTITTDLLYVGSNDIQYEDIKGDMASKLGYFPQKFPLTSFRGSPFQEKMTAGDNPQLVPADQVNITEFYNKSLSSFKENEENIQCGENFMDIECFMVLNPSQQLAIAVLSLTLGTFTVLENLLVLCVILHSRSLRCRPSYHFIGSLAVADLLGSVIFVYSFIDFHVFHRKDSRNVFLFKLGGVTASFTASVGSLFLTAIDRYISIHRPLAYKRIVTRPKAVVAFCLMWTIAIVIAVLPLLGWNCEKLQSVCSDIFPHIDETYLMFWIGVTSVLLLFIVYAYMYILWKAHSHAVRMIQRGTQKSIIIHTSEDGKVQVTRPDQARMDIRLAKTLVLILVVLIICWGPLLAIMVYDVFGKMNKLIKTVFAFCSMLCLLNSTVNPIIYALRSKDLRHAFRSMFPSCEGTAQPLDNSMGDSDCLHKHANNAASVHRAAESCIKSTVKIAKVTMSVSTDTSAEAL

CCCCCc1cc(O)c2c(c1)OC(C)(C)[C@@H]1CC=C(C)C[C@@H]21 [Δ-8-THC, delta-8-tetrahydrocannabinol]
Foxp3 expression [1]: increase | IL-10 expression [1]: increased | TGF-β expression [1]: increased | activity at CB1 receptors (CB1 receptors): partial agonist | IL-17+ CD4+ T cells in the brains ([2]; brain): decrease | RORγt+ (Th17) cells in the brains ([2]; brain): decrease | Th1 cells (T-bet) in the brain ([2]; brain, expression of T-bet): not in the brain; also recorded: decrease | IL-17+ CD4+ T cells in the brains ([2]; brain, listed as Δ8-THC): decreased | RORγt+ (Th17) cells in the brains ([2]; brain, listed as Δ8-THC): decreased | percentage of macrophages in the brain ([2]; brain-infiltrating pro-inflammatory macrophages): decreased | percentage of CD4+ T cells in the brain ([2]; flow cytometry, brain): decrease | percentage of CD4+ T cells in the spleens ([2]; flow cytometry, spleen): decrease | IL-17+ CD4+ T cells in the spleens ([2]; spleen): decreased | RORγt+ (Th17) cells in the spleens ([2]; spleen): decrease | Th1 cells expressing IFN-gamma in the spleens ([2]; spleen): decrease | percentage of macrophages in the spleens ([2]; spleen): decrease | Th1 cells (T-bet) in the spleen ([2]; spleen, expression of T-bet): decrease | RORγt+ (Th17) cells in the spleens ([2]; spleen, listed as Δ8-THC): decreased | expression of miR-21, miR-27a, miR-29a, miR-30a, miR-31, miR-146a, miR-155, and miR-326 [3, 6]: downregulated | expression of miR-let7, miR-130a, miR-181a, miR-328a and miR-448 [3, 6]: upregulating | miR expression profile ([3]; brain-infiltrating CD4+ T cells from EAE mice, compared to the controls): distinct signature profile | body weight [4]: increase; also recorded: attenuated | disease clinical scores / paralysis [4]: highly significant reduction; also recorded: attenuated; also recorded: decreased levels of paralysis | body weight ([4]; listed as Δ8-THC): gain weight | miRNA expression (miRNASeq) [5]: regulates a distinct set of miRNAs compared to Δ-9-THC; also recorded: unique miRNA signature profile distinct from Δ-9-THC; also recorded: differential expression of miRNAs
